The values that follow come from patent US20240383875A1, “Benzimidazole Pyridine Derivatives” (Hoffmann-La Roche Inc., priority 2022, published 2024).

pIC50: −log10 of the molar value.

Format in all cases: biochemical
In one experiment the target is SIK1 (Homo sapiens, UniProt P57059). As to the kind of experiment: Enzymatic activity assay SIK1, RapidFire mass spectrometry (phosphorylation of CHK-peptide). As to conditions: RapidFire MS, inhibition of SIK1; read-out: SIK1 RF IC50. Put shortly: (§1)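 Human SIK1/2/3, 5/0.5/1.5 nM; 12.5 mM HEPES pH 7.0, 10 mM Mg acetate, 0.005% BSA. 30 min cpd pre-inc, + CHK-peptide (10 μM soln) + ATP (100 μM soln), 45 min RT. Formic acid stop; RF-MS phospho ratio; IC50.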
Chain of SIK1 (P57059 whole entry): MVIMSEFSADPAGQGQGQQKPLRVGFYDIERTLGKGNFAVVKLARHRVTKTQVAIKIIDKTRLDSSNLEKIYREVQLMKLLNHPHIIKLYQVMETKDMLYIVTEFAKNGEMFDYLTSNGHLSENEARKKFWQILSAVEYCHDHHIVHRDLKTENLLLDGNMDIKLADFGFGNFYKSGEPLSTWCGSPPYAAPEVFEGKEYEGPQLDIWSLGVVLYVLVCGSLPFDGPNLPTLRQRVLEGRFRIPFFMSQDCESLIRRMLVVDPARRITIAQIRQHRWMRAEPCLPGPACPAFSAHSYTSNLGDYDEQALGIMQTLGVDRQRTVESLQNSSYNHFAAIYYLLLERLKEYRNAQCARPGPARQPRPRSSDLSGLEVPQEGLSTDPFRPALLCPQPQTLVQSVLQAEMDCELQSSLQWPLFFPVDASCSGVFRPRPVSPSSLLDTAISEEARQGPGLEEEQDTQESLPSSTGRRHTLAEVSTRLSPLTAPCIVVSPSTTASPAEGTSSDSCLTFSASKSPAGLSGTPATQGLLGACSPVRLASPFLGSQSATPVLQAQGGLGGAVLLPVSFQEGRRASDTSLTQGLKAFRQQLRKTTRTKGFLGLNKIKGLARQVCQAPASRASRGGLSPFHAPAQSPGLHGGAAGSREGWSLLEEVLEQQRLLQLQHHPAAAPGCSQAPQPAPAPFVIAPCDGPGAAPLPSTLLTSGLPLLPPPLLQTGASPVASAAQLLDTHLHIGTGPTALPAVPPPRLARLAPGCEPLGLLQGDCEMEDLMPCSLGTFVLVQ

In another experiment the target is SIK2 (Homo sapiens, UniProt Q9H0K1). As to the kind of experiment: Enzymatic activity assay SIK2, RapidFire mass spectrometry (phosphorylation of CHK-peptide). The conditions noted are these: RapidFire MS, inhibition of SIK2; read-out: SIK2 RF IC50. Put shortly:
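Read-out is the summed phospho-species fraction of CHK-peptide by RapidFire mass spectrometry, normalized between DMSO and 1 μM YKL-05-099. The reaction used 0.5 nM SIK2, 100 μM ATP and 10 μM peptide solutions in HEPES pH 7.0/10 mM magnesium acetate for 45 min at ambient temperature.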

Another experiment concerns the target SIK3 (Homo sapiens, UniProt Q9Y2K2). Put plainly: Enzymatic activity assay SIK3, RapidFire mass spectrometry (phosphorylation of CHK-peptide). As to conditions: RapidFire MS, inhibition of SIK3; read-out: SIK3 RF IC50. A digest of the protocol:
as §1

Chain of SIK3 (Q9Y2K2 whole entry): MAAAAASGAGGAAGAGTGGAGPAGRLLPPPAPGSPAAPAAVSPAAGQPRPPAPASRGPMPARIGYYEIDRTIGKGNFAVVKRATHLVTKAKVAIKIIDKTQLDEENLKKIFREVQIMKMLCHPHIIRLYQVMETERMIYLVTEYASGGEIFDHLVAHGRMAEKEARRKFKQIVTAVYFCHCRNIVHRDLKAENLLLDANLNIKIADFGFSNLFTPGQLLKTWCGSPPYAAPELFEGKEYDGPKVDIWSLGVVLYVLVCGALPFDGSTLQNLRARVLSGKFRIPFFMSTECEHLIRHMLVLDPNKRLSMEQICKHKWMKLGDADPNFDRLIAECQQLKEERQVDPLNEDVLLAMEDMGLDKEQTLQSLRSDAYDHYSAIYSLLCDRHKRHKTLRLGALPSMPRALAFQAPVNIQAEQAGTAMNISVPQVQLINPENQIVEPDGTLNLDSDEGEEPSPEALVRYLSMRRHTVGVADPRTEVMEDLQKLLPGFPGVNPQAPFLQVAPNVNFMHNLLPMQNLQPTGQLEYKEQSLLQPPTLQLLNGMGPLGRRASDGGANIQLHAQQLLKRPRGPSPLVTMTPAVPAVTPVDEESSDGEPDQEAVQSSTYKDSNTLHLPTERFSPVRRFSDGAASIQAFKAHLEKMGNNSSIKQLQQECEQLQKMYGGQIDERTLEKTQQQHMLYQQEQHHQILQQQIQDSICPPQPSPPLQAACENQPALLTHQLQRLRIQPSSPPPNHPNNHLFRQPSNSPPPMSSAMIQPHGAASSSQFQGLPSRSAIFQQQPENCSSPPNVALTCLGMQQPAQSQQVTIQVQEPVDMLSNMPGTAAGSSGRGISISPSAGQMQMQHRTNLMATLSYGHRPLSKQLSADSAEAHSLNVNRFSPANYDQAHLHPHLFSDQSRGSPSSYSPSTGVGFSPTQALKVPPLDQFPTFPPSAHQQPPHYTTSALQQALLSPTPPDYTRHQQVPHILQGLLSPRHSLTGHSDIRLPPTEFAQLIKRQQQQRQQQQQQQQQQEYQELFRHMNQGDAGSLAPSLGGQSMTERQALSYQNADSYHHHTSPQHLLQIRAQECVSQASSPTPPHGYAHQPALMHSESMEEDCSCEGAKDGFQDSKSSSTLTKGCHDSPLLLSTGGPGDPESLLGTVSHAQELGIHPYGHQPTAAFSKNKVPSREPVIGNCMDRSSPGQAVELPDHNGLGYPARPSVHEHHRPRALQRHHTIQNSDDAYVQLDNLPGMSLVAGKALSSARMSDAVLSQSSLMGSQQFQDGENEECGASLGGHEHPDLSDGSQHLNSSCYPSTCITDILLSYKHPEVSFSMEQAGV
Chain of SIK2 (Q9H0K1 whole entry): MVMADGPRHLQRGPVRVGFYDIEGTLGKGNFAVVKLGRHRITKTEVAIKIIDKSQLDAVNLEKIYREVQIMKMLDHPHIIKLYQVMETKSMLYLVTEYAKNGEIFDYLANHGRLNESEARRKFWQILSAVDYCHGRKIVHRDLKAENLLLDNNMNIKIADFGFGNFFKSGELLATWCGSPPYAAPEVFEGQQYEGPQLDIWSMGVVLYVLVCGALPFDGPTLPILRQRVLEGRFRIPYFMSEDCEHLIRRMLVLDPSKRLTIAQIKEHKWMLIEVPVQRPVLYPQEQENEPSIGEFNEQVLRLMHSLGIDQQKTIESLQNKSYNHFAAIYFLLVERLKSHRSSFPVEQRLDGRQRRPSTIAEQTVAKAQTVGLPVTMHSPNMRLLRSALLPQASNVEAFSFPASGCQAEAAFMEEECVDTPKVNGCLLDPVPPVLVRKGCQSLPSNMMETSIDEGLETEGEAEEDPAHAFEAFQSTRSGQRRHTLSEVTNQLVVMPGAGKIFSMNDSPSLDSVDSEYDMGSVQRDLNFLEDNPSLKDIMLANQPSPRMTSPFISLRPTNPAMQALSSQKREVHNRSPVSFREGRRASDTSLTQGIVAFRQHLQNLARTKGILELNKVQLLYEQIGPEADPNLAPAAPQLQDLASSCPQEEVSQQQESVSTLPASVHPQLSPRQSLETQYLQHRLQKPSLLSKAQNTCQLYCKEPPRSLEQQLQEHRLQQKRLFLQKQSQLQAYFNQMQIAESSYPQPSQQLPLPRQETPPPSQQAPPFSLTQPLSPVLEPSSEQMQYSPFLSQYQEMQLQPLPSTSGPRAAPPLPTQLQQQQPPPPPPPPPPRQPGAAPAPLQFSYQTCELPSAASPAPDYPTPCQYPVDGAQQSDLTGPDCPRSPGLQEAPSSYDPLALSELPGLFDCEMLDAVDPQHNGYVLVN

For orientation: pIC50 means the negative decadic logarithm of the IC50, by convention in mol/L. On to `Cc1cc(C#N)nn1-c1nc(-n2cnc3cc(Nc4ccc(C(F)F)nn4)ccc32)ccc1C(C)O` (stereo not drawn) [Example 90, 1-[6-[5-[[6-(Difluoromethyl)pyridazin-3-yl]amino]benzimidazol-1-yl]-3-(1-hydroxyethyl)-2-pyridyl]-5-methyl-pyrazole-3-carbonitrile], for which the pIC50 on SIK1 is 7.28; on SIK2, 9.05; at SIK3 it was 9.30.
For `Cc1ccc(Nc2cc3ncn(-c4ccc(C(C)O)c(-n5nc(C#N)cc5C)n4)c3cc2F)nn1` (stereo not drawn) [Example 93, 1-[6-[6-Fluoro-5-[(6-methylpyridazin-3-yl)amino]benzimidazol-1-yl]-3-(1-hydroxyethyl)-2-pyridyl]-5-methyl-pyrazole-3-carbonitrile] the same measures were 7.01, 9.30 and 9.22.
For `Cc1ccc(Nc2cc3c(cc2F)ncn3-c2ccc(C(C)O)c(-n3nc(C#N)cc3C)n2)nn1` (stereo not drawn) [Example 94, 1-[6-[5-Fluoro-6-[(6-methylpyridazin-3-yl)amino]benzimidazol-1-yl]-3-(1-hydroxyethyl)-2-pyridyl]-5-methyl-pyrazole-3-carbonitrile] the same measures were 7.62, 7.78 and 7.26.
As to `Cc1ccc(Nc2ccc3c(c2)ncn3-c2ccc(C(C)O)c(-n3nc(C(F)(F)F)c4c3CCNC4)n2)nn1` (stereo not drawn) [Example 97, 1-[6-[5-[(6-Methylpyridazin-3-yl)amino]benzimidazol-1-yl]-2-[3-(trifluoromethyl)-4,5,6,7-tetrahydropyrazolo[4,3-c]pyridin-1-yl]-3-pyridyl]ethanol], the pIC50 on SIK1 was 8.15; on SIK2, 9.70; on SIK3 it was 9.30.
For `Cc1ccc(Nc2ccc3ncn(-c4ccc(C(C)O)c(-n5nc(C(F)(F)F)c6c5CCNC6)n4)c3c2)nn1` (stereo not drawn) [Example 98, 1-[6-[6-[(6-Methylpyridazin-3-yl)amino]benzimidazol-1-yl]-2-[3-(trifluoromethyl)-4,5,6,7-tetrahydropyrazolo[4,3-c]pyridin-1-yl]-3-pyridyl]ethanol] the same measures were 8.30, 8.38 and 7.87.
For `Cc1nnc(Nc2ccc3c(c2)ncn3-c2ccc(C(C)O)c(-n3nc(C#N)cc3C)n2)o1` (stereo not drawn) [Example 103, 1-[3-(1-Hydroxyethyl)-6-[5-[(5-methyl-1,3,4-oxadiazol-2-yl)amino]benzimidazol-1-yl]-2-pyridyl]-5-methyl-pyrazole-3-carbonitrile], in that order: 7.46, 7.54 and 7.76.
Take `Cc1ccc(Nc2ccc3c(c2)ncn3-c2ccc(C(C)O)c(-n3nc(C)cc3C#N)n2)nn1` (stereo not drawn) [Example 104, 2-[3-(1-Hydroxyethyl)-6-[5-[(6-methylpyridazin-3-yl)amino]benzimidazol-1-yl]-2-pyridyl]-5-methyl-pyrazole-3-carbonitrile]: the negative logarithm of the IC50 (pIC50) on SIK1 is 6.21; at SIK2 it was 7.98; at SIK3, 8.59.
For `Cc1ccc(Nc2ccc3c(c2)ncn3-c2ccc(C(C)O)c(N3CC[C@@H](C#N)C3)n2)nn1` (stereo partly drawn) [Example 105, (3R)-1-[3-(1-Hydroxyethyl)-6-[5-[(6-methylpyridazin-3-yl)amino]benzimidazol-1-yl]-2-pyridyl]pyrrolidine-3-carbonitrile] the same measures were 5.87, 6.11 and 6.63.
`Cc1ccc(Nc2ccc3ncn(-c4ccc(C(C)O)c(N5CC[C@@H](C#N)C5)n4)c3c2)nn1` (stereo partly drawn) [Example 106, (3R)-1-[3-(1-Hydroxyethyl)-6-[6-[(6-methylpyridazin-3-yl)amino]benzimidazol-1-yl]-2-pyridyl]pyrrolidine-3-carbonitrile]: the pIC50 on SIK1 is 6.06; at SIK2, 7.68; on SIK3, 8.60.
As to `Cc1ccc(Nc2ccc3ncn(-c4ccc(C(C)O)c(-n5nc(C)cc5C)n4)c3c2)nn1` (stereo not drawn) [Example 107, 1-[2-(3,5-Dimethylpyrazol-1-yl)-6-[6-[(6-methylpyridazin-3-yl)amino]benzimidazol-1-yl]-3-pyridyl]ethanol; formic acid], the negative logarithm of the IC50 (pIC50) on SIK1 is 5.58; on SIK2, 5.86; on SIK3, 5.46.
For `Cc1ccc(Nc2ccc3c(c2)ncn3-c2ccc(C(C)O)c(-n3nc(C)cc3C)n2)nn1` (stereo not drawn) [Example 108, 1-[2-(3,5-Dimethylpyrazol-1-yl)-6-[5-[(6-methylpyridazin-3-yl)amino]benzimidazol-1-yl]-3-pyridyl]ethanol; formic acid], in that order: 5.42, 7.37 and 8.19.
`Cc1nnc(Nc2ccc3c(c2)ncn3-c2ccc(C(C)O)c(-n3nc(C#N)cc3C)n2)s1` (stereo not drawn) [Example 111, 1-[3-(1-Hydroxyethyl)-6-[5-[(5-methyl-1,3,4-thiadiazol-2-yl)amino]benzimidazol-1-yl]-2-pyridyl]-5-methyl-pyrazole-3-carbonitrile]: the pIC50 was 7.96 on SIK1, 8.85 at SIK2 and 9.10 on SIK3.
Take `Cc1cc(C#N)nn1-c1nc(-n2cnc3cc(OC4CCN(C5COC5)CC4)ccc32)ccc1C(C)O` (stereo not drawn) [Example 113, 1-[3-(1-Hydroxyethyl)-6-[5-[[1-(oxetan-3-yl)-4-piperidyl]oxy]benzimidazol-1-yl]-2-pyridyl]-5-methyl-pyrazole-3-carbonitrile]: the negative-log IC50 (pIC50) was 6.50 at SIK1, 7.12 at SIK2 and 7.47 on SIK3.
For `Cc1cc(C#N)nn1-c1nc(-n2cnc3ccc(OC4CCN(C5COC5)CC4)cc32)ccc1C(C)O` (stereo not drawn) [Example 114, 1-[3-(1-Hydroxyethyl)-6-[6-[[1-(oxetan-3-yl)-4-piperidyl]oxy]benzimidazol-1-yl]-2-pyridyl]-5-methyl-pyrazole-3-carbonitrile], in that order: 7.31, 7.33 and 6.22.
Turning to `Cc1ccc(Nc2ccc3c(c2)ncn3-c2ccc(C(C)O)c(-n3ccc(C#N)n3)n2)nn1` (stereo not drawn) [Example 115, 1-[3-(1-Hydroxyethyl)-6-[5-[(6-methylpyridazin-3-yl)amino]benzimidazol-1-yl]-2-pyridyl]pyrazole-3-carbonitrile], the pIC50 is 6.55 on SIK1, 8.41 at SIK2 and 9.15 on SIK3.
For `Cc1ccc(Nc2ccc3c(c2)ncn3-c2ccc(C(C)O)c(NCC3(C#N)CC3)n2)nn1` (stereo not drawn) [Example 116, 1-[[[3-(1-Hydroxyethyl)-6-[5-[(6-methylpyridazin-3-yl)amino]benzimidazol-1-yl]-2-pyridyl]amino]methyl]cyclopropanecarbonitrile; formic acid] the same measures were 5.79, 7.33 and 8.02.
For `Cc1ccc(Nc2ccc3ncn(-c4ccc(C(C)O)c(NCC5(C#N)CC5)n4)c3c2)nn1` (stereo not drawn) [Example 117, 1-[[[3-(1-Hydroxyethyl)-6-[6-[(6-methylpyridazin-3-yl)amino]benzimidazol-1-yl]-2-pyridyl]amino]methyl]cyclopropanecarbonitrile; formic acid], the values for the pIC50 on SIK1, at SIK2 and on SIK3 were 5.45, 5.99 and 6.44, respectively.
For `Cc1ccc(Nc2ccc3c(c2)ncn3-c2ccc(C(C)O)c(-c3cncc(C#N)c3)n2)nn1` (stereo not drawn) [Example 118, 5-[3-(1-Hydroxyethyl)-6-[5-[(6-methylpyridazin-3-yl)amino]benzimidazol-1-yl]-2-pyridyl]pyridine-3-carbonitrile; formic acid], in that order: 5.56, 7.44 and 8.15.
As for `Cc1cc(C#N)nn1-c1nc(-n2cnc3cc(Nc4nccnn4)ccc32)ccc1C(C)O` (stereo not drawn) [Example 119, 1-[3-(1-Hydroxyethyl)-6-[5-(1,2,4-triazin-3-ylamino)benzimidazol-1-yl]-2-pyridyl]-5-methyl-pyrazole-3-carbonitrile], the values for the pIC50 at SIK1, at SIK2 and at SIK3 were 7.92, 8.74 and 8.80, respectively.
For `Cc1ccc(Nc2ccc3ncn(-c4ccc(C(C)O)c(N5CCC(C)(C#N)C5)n4)c3c2)nn1` (stereo not drawn) [Example 120, 1-[3-(1-Hydroxyethyl)-6-[6-[(6-methylpyridazin-3-yl)amino]benzimidazol-1-yl]-2-pyridyl]-3-methyl-pyrrolidine-3-carbonitrile], in that order: 5.66, 5.88 and 6.51.
For `Cc1ccc(Nc2ccc3c(c2)ncn3-c2ccc(C(C)O)c(N3CCC(C)(C#N)C3)n2)nn1` (stereo not drawn) [Example 121, 1-[3-(1-Hydroxyethyl)-6-[5-[(6-methylpyridazin-3-yl)amino]benzimidazol-1-yl]-2-pyridyl]-3-methyl-pyrrolidine-3-carbonitrile], in that order: 5.92, 7.65 and 8.44.
As to `Cc1ccc(Nc2ccc3c(c2)ncn3-c2ccc(C(C)O)c(-c3cc(C(F)(F)F)nn3C)n2)nn1` (stereo not drawn) [Example 122, 1-[6-[5-[(6-Methylpyridazin-3-yl)amino]benzimidazol-1-yl]-2-[2-methyl-5-(trifluoromethyl)pyrazol-3-yl]-3-pyridyl]ethanol], the pIC50 is 5.46 at SIK1, 7.48 on SIK2 and 8.16 on SIK3.
For `Cc1cc(C#N)nn1-c1nc(-n2cnc3cc(Nc4ccon4)ccc32)ccc1C(C)O` (stereo not drawn) [Example 123, 1-[3-(1-Hydroxyethyl)-6-[5-(isoxazol-3-ylamino)benzimidazol-1-yl]-2-pyridyl]-5-methyl-pyrazole-3-carbonitrile] the same measures were 7.89, 8.00 and 8.23.
